Laboratory results taken from ChEMBL document CHEMBL4507310, “Data for DCP probe A-1211212” (2021).
Activity calls are given as the source filed them. The calls are words filed in the database; no cut-off is given here.

Legend:
[1] = tested on: Phosphatidylinositol 4,5-bisphosphate 3-kinase catalytic subunit alpha isoform (Homo sapiens), P42336 [M1043I]; details: Compound concentration 1000.0 nM
[2] = molecular target: Serine/threonine-protein kinase Nek3 (Homo sapiens) (UniProt P51956); details: Compound concentration 1000.0 nM
Chain of Serine/threonine-protein kinase Nek3 (Homo sapiens) (P51956 whole entry): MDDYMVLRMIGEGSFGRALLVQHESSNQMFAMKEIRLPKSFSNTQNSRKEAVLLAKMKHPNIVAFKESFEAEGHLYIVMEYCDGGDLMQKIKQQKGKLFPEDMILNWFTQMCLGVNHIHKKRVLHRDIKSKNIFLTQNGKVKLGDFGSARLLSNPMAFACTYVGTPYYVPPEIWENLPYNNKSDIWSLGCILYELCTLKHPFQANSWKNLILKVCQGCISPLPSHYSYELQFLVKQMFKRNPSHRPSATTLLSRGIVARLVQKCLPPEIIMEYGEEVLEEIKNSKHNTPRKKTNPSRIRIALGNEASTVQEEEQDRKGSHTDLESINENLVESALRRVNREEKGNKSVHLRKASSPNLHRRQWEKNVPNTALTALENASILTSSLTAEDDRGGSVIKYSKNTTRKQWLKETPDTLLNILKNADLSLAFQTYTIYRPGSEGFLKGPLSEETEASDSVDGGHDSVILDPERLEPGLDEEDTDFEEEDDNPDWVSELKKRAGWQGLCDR

[3] = molecular target: Vascular endothelial growth factor receptor 2 (Homo sapiens) (UniProt P35968); details: Compound concentration 1000.0 nM
[4] = molecular target: Dual specificity protein kinase CLK4 (Homo sapiens) (UniProt Q9HAZ1); details: Compound concentration 1000.0 nM
[5] = molecular target: Ephrin type-A receptor 7 (Homo sapiens) (UniProt Q15375); details: Compound concentration 1000.0 nM
[6] = molecular target: cGMP-inhibited 3',5'-cyclic phosphodiesterase 3A (Homo sapiens) (UniProt Q14432); test: PDE3A (h) Eurofins-Cerep enzyme and uptake assay; details: Compound concentration 10.0 uM
[7] = molecular target: Tyrosine-protein kinase HCK (Homo sapiens) (UniProt P08631); details: Compound concentration 1000.0 nM
[8] = molecular target: Angiotensin-converting enzyme (Homo sapiens) (UniProt P12821); test: ACE (h) Eurofins-Cerep enzyme and uptake assay; details: Compound concentration 10.0 uM
[9] = molecular target: Cyclin-dependent kinase 13 (Homo sapiens) (UniProt Q14004); details: Compound concentration 1000.0 nM
[10] = tested on: Phosphatidylinositol 4,5-bisphosphate 3-kinase catalytic subunit alpha isoform (Homo sapiens), P42336 [I800L]; details: Compound concentration 1000.0 nM
[11] = molecular target: Cytoplasmic tyrosine-protein kinase BMX (Homo sapiens) (UniProt P51813); details: Compound concentration 1000.0 nM
[12] = molecular target: Bone morphogenetic protein receptor type-2 (Homo sapiens) (UniProt Q13873); details: Compound concentration 1000.0 nM
[13] = tested on: Phosphatidylinositol 4,5-bisphosphate 3-kinase catalytic subunit alpha isoform (Homo sapiens), P42336 [C420R]; details: Compound concentration 1000.0 nM
[14] = molecular target: D(1A) dopamine receptor (Homo sapiens) (UniProt P21728); details: Compound concentration 10.0 uM
[15] = tested on: Phosphatidylinositol 4,5-bisphosphate 3-kinase catalytic subunit alpha isoform (Homo sapiens), P42336 [E542K]; details: Compound concentration 1000.0 nM
Chain of Phosphatidylinositol 4,5-bisphosphate 3-kinase catalytic subunit alpha isoform (Homo sapiens), P42336 [E542K] (P42336 whole entry E542K, canonical isoform): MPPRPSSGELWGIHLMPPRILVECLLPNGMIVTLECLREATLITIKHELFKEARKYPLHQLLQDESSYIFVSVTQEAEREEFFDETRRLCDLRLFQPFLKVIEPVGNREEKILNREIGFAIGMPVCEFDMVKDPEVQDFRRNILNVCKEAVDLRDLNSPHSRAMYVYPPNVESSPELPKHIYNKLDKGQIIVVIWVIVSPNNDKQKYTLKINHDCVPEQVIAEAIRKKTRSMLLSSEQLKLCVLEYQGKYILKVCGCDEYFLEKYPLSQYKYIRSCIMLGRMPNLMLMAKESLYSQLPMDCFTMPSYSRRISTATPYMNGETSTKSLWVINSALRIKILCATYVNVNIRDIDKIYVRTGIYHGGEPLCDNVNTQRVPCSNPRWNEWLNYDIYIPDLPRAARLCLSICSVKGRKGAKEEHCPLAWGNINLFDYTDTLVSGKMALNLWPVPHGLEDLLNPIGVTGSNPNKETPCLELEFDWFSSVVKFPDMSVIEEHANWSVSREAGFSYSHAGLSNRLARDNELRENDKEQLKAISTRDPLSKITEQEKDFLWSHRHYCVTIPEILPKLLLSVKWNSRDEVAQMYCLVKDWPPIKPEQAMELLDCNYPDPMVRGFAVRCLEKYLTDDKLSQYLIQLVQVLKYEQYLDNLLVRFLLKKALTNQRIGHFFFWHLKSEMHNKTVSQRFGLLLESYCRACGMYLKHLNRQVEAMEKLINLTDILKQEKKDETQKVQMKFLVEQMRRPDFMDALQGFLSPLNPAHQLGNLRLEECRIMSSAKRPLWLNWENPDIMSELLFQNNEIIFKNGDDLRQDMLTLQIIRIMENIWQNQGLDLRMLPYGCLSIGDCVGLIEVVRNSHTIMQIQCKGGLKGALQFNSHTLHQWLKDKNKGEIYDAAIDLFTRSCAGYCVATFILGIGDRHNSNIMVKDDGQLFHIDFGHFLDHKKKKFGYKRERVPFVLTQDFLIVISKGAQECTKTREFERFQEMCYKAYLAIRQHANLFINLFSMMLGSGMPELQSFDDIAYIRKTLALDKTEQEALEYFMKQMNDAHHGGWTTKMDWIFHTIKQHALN

[16] = molecular target: Glutamate NMDA receptor (Rattus norvegicus) (UniProt P35439+Q00959+Q00960+Q00961+Q62645+Q8VHN2+Q9R1M7); test: NMDA Eurofins-Cerep binding assay; type: protein-complex assay; parameters: ligand concentration 5 nM; details: filed as antagonist, Compound concentration 10.0 uM
[17] = molecular target: Muscle, skeletal receptor tyrosine-protein kinase (Homo sapiens) (UniProt O15146); details: Compound concentration 1000.0 nM
Chain of Muscle, skeletal receptor tyrosine-protein kinase (Homo sapiens) (O15146 whole entry): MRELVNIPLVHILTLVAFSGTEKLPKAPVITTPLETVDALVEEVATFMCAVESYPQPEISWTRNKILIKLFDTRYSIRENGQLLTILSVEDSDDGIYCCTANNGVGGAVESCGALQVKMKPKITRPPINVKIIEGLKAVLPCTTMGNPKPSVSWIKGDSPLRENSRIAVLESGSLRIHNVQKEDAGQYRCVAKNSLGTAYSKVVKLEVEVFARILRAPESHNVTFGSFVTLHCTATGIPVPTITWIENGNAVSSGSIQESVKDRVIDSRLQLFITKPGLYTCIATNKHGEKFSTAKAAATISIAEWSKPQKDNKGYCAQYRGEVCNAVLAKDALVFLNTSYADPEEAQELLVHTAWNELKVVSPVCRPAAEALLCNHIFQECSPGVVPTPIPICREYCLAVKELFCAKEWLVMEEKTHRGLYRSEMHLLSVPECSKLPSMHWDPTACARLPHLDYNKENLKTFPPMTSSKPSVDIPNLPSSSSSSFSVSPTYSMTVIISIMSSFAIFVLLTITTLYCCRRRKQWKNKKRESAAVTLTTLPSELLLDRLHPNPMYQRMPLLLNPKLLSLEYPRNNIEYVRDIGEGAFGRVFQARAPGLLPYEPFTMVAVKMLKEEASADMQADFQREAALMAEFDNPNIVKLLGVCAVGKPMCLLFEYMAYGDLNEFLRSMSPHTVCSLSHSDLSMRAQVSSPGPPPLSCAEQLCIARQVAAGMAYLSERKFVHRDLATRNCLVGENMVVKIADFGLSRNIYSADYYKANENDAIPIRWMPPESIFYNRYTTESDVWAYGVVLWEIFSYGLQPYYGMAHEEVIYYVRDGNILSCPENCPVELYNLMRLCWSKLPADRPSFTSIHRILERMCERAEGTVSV

[18] = molecular target: Mitogen-activated protein kinase kinase kinase 14 (Homo sapiens) (UniProt Q99558); details: Compound concentration 1000.0 nM
[19] = molecular target: Delta-type opioid receptor (Homo sapiens) (UniProt P41143); test: delta (DOP) (h) Eurofins-Cerep binding assay; parameters: ligand concentration 0.5 nM; details: filed as agonist, Compound concentration 10.0 uM
[20] = molecular target: Serine/threonine-protein kinase DCLK2 (Homo sapiens) (UniProt Q8N568); details: Compound concentration 1000.0 nM
[21] = molecular target: Apoptosis regulator Bcl-2 (Homo sapiens, UniProt P10415); test: Time-resolved fluorescence energy transfer (TR-FRET) with BCL2
Chain of Apoptosis regulator Bcl-2 (P10415 whole entry): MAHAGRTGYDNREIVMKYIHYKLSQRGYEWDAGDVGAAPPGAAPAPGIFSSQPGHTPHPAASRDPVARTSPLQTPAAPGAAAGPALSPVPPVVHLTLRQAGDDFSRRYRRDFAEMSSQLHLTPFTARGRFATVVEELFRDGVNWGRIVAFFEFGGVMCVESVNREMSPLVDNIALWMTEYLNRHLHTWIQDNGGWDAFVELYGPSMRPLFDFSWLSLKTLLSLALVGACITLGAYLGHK

[22] = molecular target: NUAK family SNF1-like kinase 1 (Homo sapiens) (UniProt O60285); details: Compound concentration 1000.0 nM
[23] = molecular target: Serine/threonine-protein kinase Nek9 (Homo sapiens) (UniProt Q8TD19); details: Compound concentration 1000.0 nM
[24] = molecular target: Atypical kinase COQ8B, mitochondrial (Homo sapiens) (UniProt Q96D53); details: Compound concentration 1000.0 nM
[25] = molecular target: Estrogen receptor (Homo sapiens) (UniProt P03372); test: Estrogen ER alpha (h) Eurofins-Cerep binding assay; parameters: ligand concentration 0.5 nM; details: filed as agonist, Compound concentration 10.0 uM
[26] = molecular target: Cannabinoid receptor 2 (Homo sapiens) (UniProt P34972); test: CB2 (h) Eurofins-Cerep binding assay; parameters: ligand concentration 0.8 nM; details: filed as agonist, Compound concentration 10.0 uM
[27] = molecular target: Cannabinoid receptor 1 (Homo sapiens) (UniProt P21554); test: CB1 (h) Eurofins-Cerep binding assay; parameters: ligand concentration 0.5 nM; details: filed as agonist, Compound concentration 10.0 uM
[28] = molecular target: Insulin receptor (Homo sapiens) (UniProt P06213); details: Compound concentration 1000.0 nM
[29] = molecular target: NT-3 growth factor receptor (Homo sapiens) (UniProt Q16288); details: Compound concentration 1000.0 nM
[30] = molecular target: Mitogen-activated protein kinase kinase kinase 6 (Homo sapiens) (UniProt O95382); details: Compound concentration 1000.0 nM
[31] = molecular target: Serine/threonine-protein kinase Nek10 (Homo sapiens) (UniProt Q6ZWH5); details: Compound concentration 1000.0 nM
[32] = tested on: ALK tyrosine kinase receptor (Homo sapiens), Q9UM73 [L1196M]; details: Compound concentration 1000.0 nM
[33] = molecular target: Inhibitor of nuclear factor kappa-B kinase subunit beta (Homo sapiens) (UniProt O14920); details: Compound concentration 1000.0 nM
Chain of Inhibitor of nuclear factor kappa-B kinase subunit beta (Homo sapiens) (O14920 whole entry): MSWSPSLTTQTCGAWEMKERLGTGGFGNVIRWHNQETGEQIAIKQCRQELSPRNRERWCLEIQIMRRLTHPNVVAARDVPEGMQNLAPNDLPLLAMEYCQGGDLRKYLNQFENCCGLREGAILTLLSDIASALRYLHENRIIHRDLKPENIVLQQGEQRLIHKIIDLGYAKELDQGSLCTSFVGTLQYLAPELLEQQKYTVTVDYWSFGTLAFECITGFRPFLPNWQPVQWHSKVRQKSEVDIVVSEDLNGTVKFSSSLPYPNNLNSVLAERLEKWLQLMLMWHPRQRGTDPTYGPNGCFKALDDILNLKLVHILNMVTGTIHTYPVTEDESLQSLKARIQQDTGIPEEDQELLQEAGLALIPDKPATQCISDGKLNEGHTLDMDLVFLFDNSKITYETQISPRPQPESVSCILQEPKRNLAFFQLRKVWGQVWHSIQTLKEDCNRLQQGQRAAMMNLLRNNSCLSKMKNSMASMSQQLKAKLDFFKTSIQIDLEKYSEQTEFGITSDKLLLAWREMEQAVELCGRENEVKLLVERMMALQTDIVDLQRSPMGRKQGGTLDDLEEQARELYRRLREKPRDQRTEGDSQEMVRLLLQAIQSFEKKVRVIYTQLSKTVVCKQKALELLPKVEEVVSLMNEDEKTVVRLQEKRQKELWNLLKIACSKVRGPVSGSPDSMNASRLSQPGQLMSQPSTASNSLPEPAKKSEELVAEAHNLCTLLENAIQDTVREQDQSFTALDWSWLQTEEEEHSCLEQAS

[34] = molecular target: Dual specificity mitogen-activated protein kinase kinase 1 (Homo sapiens) (UniProt Q02750); details: Compound concentration 1000.0 nM
[35] = tested on: Phosphatidylinositol 4,5-bisphosphate 3-kinase catalytic subunit alpha isoform (Homo sapiens), P42336 [H1047L]; details: Compound concentration 1000.0 nM
[36] = molecular target: Mitogen-activated protein kinase 12 (Homo sapiens) (UniProt P53778); details: Compound concentration 1000.0 nM
[37] = molecular target: GABA-A receptor; anion channel (Rattus norvegicus) (UniProt O09028+P15431+P18506+P18508+P19969+P20236+P23574+P23576+P28471+P28473+P30191+P62813+P63079+P63138+Q91ZM7+Q9ES14); test: BZD (central) Eurofins-Cerep binding assay; type: protein-complex assay; parameters: ligand concentration 0.4 nM; details: filed as agonist, Compound concentration 10.0 uM
[38] = molecular target: Muscarinic acetylcholine receptor M3 (Homo sapiens) (UniProt P20309); details: Compound concentration 10.0 uM
[39] = molecular target: Macrophage-stimulating protein receptor (Homo sapiens) (UniProt Q04912); details: Compound concentration 1000.0 nM
[40] = molecular target: Mitogen-activated protein kinase 6 (Homo sapiens) (UniProt Q16659); details: Compound concentration 1000.0 nM
[41] = molecular target: Ephrin type-B receptor 1 (Homo sapiens) (UniProt P54762); details: Compound concentration 1000.0 nM
Chain of Ephrin type-B receptor 1 (Homo sapiens) (P54762 whole entry): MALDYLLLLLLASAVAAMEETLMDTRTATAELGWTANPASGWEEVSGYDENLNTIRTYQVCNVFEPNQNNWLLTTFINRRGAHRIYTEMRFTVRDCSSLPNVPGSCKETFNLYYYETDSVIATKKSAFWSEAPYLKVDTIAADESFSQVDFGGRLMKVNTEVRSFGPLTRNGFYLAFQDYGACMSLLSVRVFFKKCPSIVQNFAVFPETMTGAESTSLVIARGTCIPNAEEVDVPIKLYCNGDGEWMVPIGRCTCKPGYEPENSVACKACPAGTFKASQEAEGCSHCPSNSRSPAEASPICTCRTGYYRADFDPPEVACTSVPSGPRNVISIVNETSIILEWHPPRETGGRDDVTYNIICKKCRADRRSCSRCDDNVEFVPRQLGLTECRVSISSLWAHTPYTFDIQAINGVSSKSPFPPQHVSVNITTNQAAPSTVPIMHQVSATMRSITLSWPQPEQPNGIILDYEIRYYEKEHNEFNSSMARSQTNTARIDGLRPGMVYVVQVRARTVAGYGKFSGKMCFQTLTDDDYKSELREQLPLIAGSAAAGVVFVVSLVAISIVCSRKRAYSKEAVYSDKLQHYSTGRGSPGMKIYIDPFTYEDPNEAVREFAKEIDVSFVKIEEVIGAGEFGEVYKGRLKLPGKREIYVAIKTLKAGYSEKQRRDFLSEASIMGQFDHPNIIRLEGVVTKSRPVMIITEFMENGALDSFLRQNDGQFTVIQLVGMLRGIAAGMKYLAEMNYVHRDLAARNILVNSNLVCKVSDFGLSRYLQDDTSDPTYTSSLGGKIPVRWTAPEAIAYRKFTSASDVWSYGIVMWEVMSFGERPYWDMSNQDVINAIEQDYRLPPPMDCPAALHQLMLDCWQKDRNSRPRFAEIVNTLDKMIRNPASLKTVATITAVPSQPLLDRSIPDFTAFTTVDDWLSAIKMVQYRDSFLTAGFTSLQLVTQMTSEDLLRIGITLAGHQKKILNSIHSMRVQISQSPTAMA

[42] = molecular target: 5-hydroxytryptamine receptor 7 (Homo sapiens) (UniProt P34969); test: 5-HT7 (h) Eurofins-Cerep binding assay; parameters: ligand concentration 4 nM; details: filed as agonist, Compound concentration 10.0 uM
Chain of 5-hydroxytryptamine receptor 7 (Homo sapiens) (P34969 whole entry): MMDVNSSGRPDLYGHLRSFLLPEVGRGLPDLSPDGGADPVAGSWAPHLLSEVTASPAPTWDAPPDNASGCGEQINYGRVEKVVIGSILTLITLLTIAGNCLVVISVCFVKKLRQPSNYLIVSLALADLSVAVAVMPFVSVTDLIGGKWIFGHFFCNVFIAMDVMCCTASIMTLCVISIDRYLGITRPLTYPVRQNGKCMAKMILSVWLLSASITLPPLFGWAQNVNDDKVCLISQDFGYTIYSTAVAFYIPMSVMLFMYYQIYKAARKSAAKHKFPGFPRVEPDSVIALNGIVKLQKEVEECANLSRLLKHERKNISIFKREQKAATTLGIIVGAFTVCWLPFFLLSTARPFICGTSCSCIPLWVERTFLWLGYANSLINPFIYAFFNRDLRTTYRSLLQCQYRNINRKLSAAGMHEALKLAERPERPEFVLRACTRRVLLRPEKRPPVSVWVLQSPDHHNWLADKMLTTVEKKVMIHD

[43] = molecular target: Cyclin-dependent kinase 8 (Homo sapiens) (UniProt P49336); details: Compound concentration 1000.0 nM

With `CO[C@H]1CC[C@H](CNc2ccc(S(=O)(=O)NC(=O)c3ccc(N4CCN(CC5=C(c6ccc(Cl)cc6)CC(C)(C)CC5)CC4)cc3Oc3cnc4[nH]ccc4c3)cc2[N+](=O)[O-])CC1` [A-1211212] the residual activity [1] was 74%, the residual activity [2] was 66% and the residual activity [3] was 100%. It also gave a residual activity [4] of 58%, a residual activity [5] of 87% and a % Inhibition of Control Values (Mean n=2) [6] of 4.9%. The residual activity [7] was 71%, the % Inhibition of Control Values (Mean n=2) [8] was -72.6% and the residual activity [9] was 100%. For the same compound, the residual activity [10] was 98%, the residual activity [11] was 95% and the residual activity [12] was 100%. For the same compound, the residual activity [13] was 75%, the inhibition [14] was 28.2% and the residual activity [15] was 94%. The % Inhibition of Control Specific Binding (Mean n=2) [16] was -3.3%, the residual activity [17] was 100% and the residual activity [18] was 100%. The % Inhibition of Control Specific Binding (Mean n=2) [19] was 2.8%, the residual activity [20] was 100% and the IC50 [21] was 0.0014 µM (active). For the same compound, the residual activity [22] was 100%, the residual activity [23] was 95% and the residual activity [24] was 100%. For the same compound, the % Inhibition of Control Specific Binding [25] was 1.9%, the % Inhibition of Control Specific Binding (Mean n=2) [26] was 21.4% and the % Inhibition of Control Specific Binding (Mean n=2) [27] was -6.4%. For the same compound, the residual activity [28] was 91%, the residual activity [29] was 100% and the residual activity [30] was 93%. It also gave a residual activity [31] of 100%, a residual activity [32] of 100% and a residual activity [33] of 100%. For the same compound, the residual activity [34] was 99%, the residual activity [35] was 90% and the residual activity [36] was 47%. For the same compound, the % Inhibition of Control Specific Binding (Mean n=2) [37] was -1%, the inhibition [38] was 3.65% and the residual activity [39] was 92%. The residual activity [40] was 81%, the residual activity [41] was 84% and the % Inhibition of Control Specific Binding (Mean n=2) [42] was 11.4%. The residual activity [43] was 91%.
In the case of `O=C(NS(=O)(=O)c1ccc(NCC2CCOCC2)c([N+](=O)[O-])c1)c1ccc(N2CCN(Cc3ccc(C(F)(F)F)cc3-c3ccc(Cl)cc3)CC2)cc1Oc1cnc2[nH]ccc2c1` [A-1210227], the residual activity [1] is reported as 51%, the residual activity [2] is reported as 85% and the residual activity [3] is reported as 100%. For the same compound, the residual activity [4] was 100%, the residual activity [5] was 88% and the % Inhibition of Control Values (Mean n=2) [6] was 6%. For the same compound, the residual activity [7] was 99%, the % Inhibition of Control Values (Mean n=2) [8] was -32.2% and the residual activity [9] was 63%. The residual activity [10] was 100%, the residual activity [11] was 100% and the residual activity [12] was 100%. The residual activity [13] was 81%, the inhibition [14] was 34.2% and the residual activity [15] was 98%. The % Inhibition of Control Specific Binding (Mean n=2) [16] was -7.6%, the residual activity [17] was 98% and the residual activity [18] was 65%. The % Inhibition of Control Specific Binding (Mean n=2) [19] was 7.4%, the residual activity [20] was 100% and the IC50 [21] was 0.296 µM (not active). It also gave a residual activity [22] of 98%, a residual activity [23] of 100% and a residual activity [24] of 90%. It also gave a % Inhibition of Control Specific Binding (Mean n=2) [25] of -7.6%, a % Inhibition of Control Specific Binding (Mean n=2) [26] of -13% and a % Inhibition of Control Specific Binding (Mean n=2) [27] of -13.7%. The residual activity [28] was 89%, the residual activity [29] was 100% and the residual activity [30] was 80%. The residual activity [31] was 100%, the residual activity [32] was 100% and the residual activity [33] was 74%. It also gave a residual activity [34] of 92%, a residual activity [35] of 85% and a residual activity [36] of 50%. The % Inhibition of Control Specific Binding (Mean n=2) [37] was 4.2%, the inhibition [38] was 12.6% and the residual activity [39] was 96%. The residual activity [40] was 100%, the residual activity [41] was 100% and the % Inhibition of Control Specific Binding (Mean n=2) [42] was 10.2%. It also gave a residual activity [43] of 100%.
